These results are taken from patent publication US8143270B2, “2-amino 1H-in-imidazo ring systems and methods” (3M Innovative Properties Company, priority 2004, dated 2012).

Structures can show the parent of a compound that is named as a salt.

By melting point is commonly meant the temperature, or range, at which the solid turns liquid.

System in one data set: not given
Assay: not given
Details: not given
Turning to `CC(C)(O)Cn1c(N)nc2c(N)nc3c(c21)CCCC3` [Example 18, 1-(2,4-Diamino-6,7,8,9-tetrahydro-1H-imidazo[4,5-c]quinolin-1-yl)-2-methylpropan-2-ol], the melting point was > 270 °C.
Same read-out and setting: the value for `COC(=O)Nc1nc2c(N)nc3ccccc3c2n1CC(C)(C)O` [Example 181, Methyl [4-amino-1-(2-hydroxy-2-methylpropyl)-1H-imidazo[4,5-c]quinolin-2-yl]carbamate] was 255 to 258 °C (dec.); that for `CC(C)Cn1c(N)nc2c(N)nc3ccccc3c21` [Example 1, 1-(2-Methylpropyl)-1H-imidazo[4,5-c]quinoline-2,4-diamine] was > 250 °C.
Take `C[C@@H](c1ccccc1)n1c(N)nc2c(N)nc3ccccc3c21` [Example 45, 1-[(1S)-1-Phenylethyl]-1H-imidazo[4,5-c]quinoline-2,4-diamine]: the melting point fell in the range of 135 to 140 °C.
Same read-out and setting: the value for `CCNc1nc2c(N)nc3ccccc3c2n1CC(C)(C)O` [Example 7, 1-[4-Amino-2-(ethylamino)-1H-imidazo[4,5-c]quinolin-1-yl]-2-methylpropan-2-ol] was 233 to 235 °C.
`COCCNc1nc2c(N)nc3ccccc3c2n1CC(C)(C)O` [Example 8, 1-{4-Amino-2-[(2-methoxyethyl)amino]-1H-imidazo[4,5-c]quinolin-1-yl}-2-methylpropan-2-ol] registered a melting point of 176 to 178 °C.
For the molecule `Nc1nc2ccccc2c2c1nc(N)n2Cc1ccccc1` [Example 4, 1-Benzyl-1H-imidazo[4,5-c]quinoline-2,4-diamine], the melting point lay in the range of 254 to 256 °C.
For the molecule `COCCCNc1nc2c(N)nc3ccccc3c2n1CC(C)(C)O` [Example 9, 1-{4-Amino-2-[(3-methoxypropyl)amino]-1H-imidazo[4,5-c]quinolin-1-yl}-2-methylpropan-2-ol], the melting point fell in the range of 209 to 210 °C.
On the same count and under the same terms, the value for `CC(C)(O)Cn1c(N)nc2c(N)nc3ccccc3c21` (as salt: hydrobromid) [Example 2, 1-(2,4-Diamino-1H-imidazo[4,5-c]quinolin-1-yl)-2-methylpropan-2-ol hydrobromide] was > 230 °C; that for `CC(C)(F)Cn1c(N)nc2c(N)nc3ccccc3c21` [Example 43, 1-(2-Fluoro-2-methylpropyl)-1H-imidazo[4,5-c]quinoline-2,4-diamine] was 251 °C.
On the same count and under the same terms, the value for `CC(C)(Cn1c(N)nc2c(N)nc3ccccc3c21)NS(C)(=O)=O` [Example 3, N-[2-(2,4-Diamino-1H-imidazo[4,5-c]quinolin-1-yl)-1,1-dimethylethyl]methanesulfonamide] was > 230 °C; that for `C[C@H](c1ccccc1)n1c(N)nc2c(N)nc3ccccc3c21` [Example 44, 1-[(1R)-1-Phenylethyl]-1H-imidazo[4,5-c]quinoline-2,4-diamine] was 156 to 160 °C; that for `CCNc1nc2c(N)nc3ccccc3c2n1CC(C)C` [Example 6, N^2-Ethyl-1-(2-methylpropyl)-1H-imidazo[4,5-c]quinoline-2,4-diamine] was 188 to 190 °C.
In the case of `Nc1nc2ccccc2c2c1nc(N)n2CC1(O)CCC1` [Example 46, 1-[(2,4-Diamino-1H-imidazo[4,5-c]quinolin-1-yl)methyl]cyclobutanol], the melting point is 295 °C (dec.).
On the same count and under the same terms, the value for `CCNc1nc2c(N)nc(C)c(C)c2n1CC(C)C` [Example 16, N^2-Ethyl-6,7-dimethyl-1-(2-methylpropyl)-1H-imidazo[4,5-c]pyridine-2,4-diamine] was 168 to 170 °C.

A further data set relates to mouse macrophage cell line Raw 264.7. The data set is described as follows: TNF-α inhibition in mouse cells. The format is cell-based. The conditions noted are these: Raw 264.7 cells stimulated by lipopolysaccharide (LPS); single concentration 5 μM or dose response 0.03-10 μM; TNF-α by ELISA. The procedure: The compounds of Formulas I, II, III, IV, V, VI, VII, and VIII are useful as immune response modifiers (IRMs) due to their ability to modulate cytokine biosynthesis (e.g., induce or inhibit the biosynthesis or production of one or more cytokines) and otherwise modulate the immune response when administered to animals. Compounds can be tested per the test procedures described in the Examples Section. Compounds can be tested for induction of cytokine biosynthesis by incubating human peripheral blood mononuclear cells (PBMC) in a culture with the compound(s) at a concentration range of 30 to 0.014 μM and analyzing for interferon (α) or tumor necrosis factor (α) in the culture supernatant. Compounds can be tested for inhibition of cytokine biosynthesis by incubating mouse macrophage cell line Raw 264.7 in a culture with the compound(s) at a single concentration of, for example, 5 μM and analyzing for tumor necrosis factor (α) in the culture supernatant. The ability to modulate cytokine biosynthesis, for example, induce the biosynthesis of one or more cytokines, makes the compounds useful in the treatment of a variety of conditions such as viral diseases and neoplastic diseases, that are responsive to such changes in the immune response. […]
(§1) Raw cells (ATCC) are harvested by gentle scraping and then counted. […]
The compounds are solubilized in dimethyl sulfoxide (DMSO). […] LPS (Lipopolysaccaride from Salmonella typhimurium, Sigma-Aldrich) is diluted with colorless RPMI to the EC70 concentration as measured by a dose response assay. […]
Following the incubation the supernatant is removed with a pipet. TNF-α concentration is determined by ELISA using a mouse TNF-α kit (from Biosource International, Camarillo, Calif.). […]
as §1
The compounds are solubilized in dimethyl sulfoxide (DMSO). […] LPS (Lipopolysaccaride from Salmonella typhimurium, Sigma-Aldrich) is diluted with colorless RPMI to the EC70 concentration as measured by dose response assay. […]
A general note: An ELISA detects its analyte on a solid surface through an enzyme-linked reagent.
As for `CCNc1nc2c(N)nc3ccccc3c2n1CC(C)(C)O` [Example 7, 1-[4-Amino-2-(ethylamino)-1H-imidazo[4,5-c]quinolin-1-yl]-2-methylpropan-2-ol], the “inhibition of production of tumor necrosis factor α (TNF-α)” value is reported as “inhibiting production of tumor necrosis factor α (TNF-α)”.
The same measure, in the same setting: the result for `COCCNc1nc2c(N)nc3ccccc3c2n1CC(C)(C)O` [Example 8, 1-{4-Amino-2-[(2-methoxyethyl)amino]-1H-imidazo[4,5-c]quinolin-1-yl}-2-methylpropan-2-ol] reads “inhibiting production of tumor necrosis factor α (TNF-α)”.
Still for that read-out and setting: the result for `COCCCNc1nc2c(N)nc3ccccc3c2n1CC(C)(C)O` [Example 9, 1-{4-Amino-2-[(3-methoxypropyl)amino]-1H-imidazo[4,5-c]quinolin-1-yl}-2-methylpropan-2-ol] reads “inhibiting production of tumor necrosis factor α (TNF-α)”.
